# From ChEMBL document CHEMBL4665869, “New thiazolopyrimidine as anticancer agents: Synthesis, biological evaluation, DNA binding, molecular modeling and ADMET study” (Bioorg Med Chem Lett, 2020)
# Assays:
# MOLT-4 = assay: Growth inhibition of human MOLT-4 cells at 10 uM relative to control; type: functional; conditions: read-out: GI
# MDA-MB-231 = assay: Growth inhibition of human MDA-MB-231 cells at 10 uM relative to control; type: functional; conditions: read-out: GI
# HL-60(TB) = assay: Growth inhibition of human HL-60(TB) cells at 10 uM relative to control; type: functional; conditions: read-out: GI
# RPMI-8226 = assay: Growth inhibition of human RPMI-8226 cells at 10 uM relative to control; type: functional; conditions: read-out: GI
# SNB-75 = assay: Growth inhibition of human SNB-75 cells at 10 uM relative to control; type: functional; conditions: read-out: GI
# DNA = assay: Displacement of methyl green from DNA (unknown origin) assessed as DNA intercalation after 24 hrs by colorimetric assay; type: nucleic-acid assay
# UACC-62 = assay: Growth inhibition of human UACC-62 cells at 10 uM relative to control; type: functional; conditions: read-out: GI
# SK-MEL-2 = assay: Growth inhibition of human SK-MEL-2 cells at 10 uM relative to control; type: functional; conditions: read-out: GI
# Malme-3M = assay: Growth inhibition of human Malme-3M cells at 10 uM relative to control; type: functional; conditions: read-out: GI
# SN12C = assay: Growth inhibition of human SN12C cells at 10 uM relative to control; type: functional; conditions: read-out: GI
# LOX IMVI = assay: Growth inhibition of human LOX IMVI cells at 10 uM relative to control; type: functional; conditions: read-out: GI
# SW-620 = assay: Growth inhibition of human SW-620 cells at 10 uM relative to control; type: functional; conditions: read-out: GI
# HT-29 = assay: Growth inhibition of human HT-29 cells at 10 uM relative to control; type: functional; conditions: read-out: GI
# RXF 393 = assay: Growth inhibition of human RXF 393 cells at 10 uM relative to control; type: functional; conditions: read-out: GI
# PC-3 = assay: Growth inhibition of human PC-3 cells at 10 uM relative to control; type: functional; conditions: read-out: GI
# SNB-19 = assay: Growth inhibition of human SNB-19 cells at 10 uM relative to control; type: functional; conditions: read-out: GI
# CAKI-1 = assay: Growth inhibition of human CAKI-1 cells at 10 uM relative to control; type: functional; conditions: read-out: GI
# DU-145 = assay: Growth inhibition of human DU-145 cells at 10 uM relative to control; type: functional; conditions: read-out: GI
# ACHN = assay: Growth inhibition of human ACHN cells at 10 uM relative to control; type: functional; conditions: read-out: GI
# SR = assay: Growth inhibition of human SR cells at 10 uM relative to control; type: functional; conditions: read-out: GI
# KM12 = assay: Growth inhibition of human KM12 cells at 10 uM relative to control; type: functional; conditions: read-out: GI
# OVCAR-5 = assay: Growth inhibition of human OVCAR-5 cells at 10 uM relative to control; type: functional; conditions: read-out: GI
# NCI/ADR-RES = assay: Growth inhibition of human NCI/ADR-RES cells at 10 uM relative to control; type: functional; conditions: read-out: GI
# CCRF-CEM = assay: Growth inhibition of human CCRF-CEM cells at 10 uM relative to control; type: functional; conditions: read-out: GI
# UACC-257 = assay: Growth inhibition of human UACC-257 cells at 10 uM relative to control; type: functional; conditions: read-out: GI
# MDA-MB-468 = assay: Growth inhibition of human MDA-MB-468 cells at 10 uM relative to control; type: functional; conditions: read-out: GI
# Hs-578T = assay: Growth inhibition of human Hs-578T cells at 10 uM relative to control; type: functional; conditions: read-out: GI
# OVCAR-4 = assay: Growth inhibition of human OVCAR-4 cells at 10 uM relative to control; type: functional; conditions: read-out: GI
# NCI-H322M = assay: Growth inhibition of human NCI-H322M cells at 10 uM relative to control; type: functional; conditions: read-out: GI
# NCI-H226 = assay: Growth inhibition of human NCI-H226 cells at 10 uM relative to control; type: functional; conditions: read-out: GI
# HCT-116 = assay: Growth inhibition of human HCT-116 cells at 10 uM relative to control; type: functional; conditions: read-out: GI
# MCF7 = assay: Growth inhibition of human MCF7 cells at 10 uM relative to control; type: functional; conditions: read-out: GI
# A498 = assay: Growth inhibition of human A498 cells at 10 uM relative to control; type: functional; conditions: read-out: GI
# HCC 2998 = assay: Growth inhibition of human HCC 2998 cells at 10 uM relative to control; type: functional; conditions: read-out: GI
# TK-10 = assay: Growth inhibition of human TK-10 cells at 10 uM relative to control; type: functional; conditions: read-out: GI
# SF-268 = assay: Growth inhibition of human SF-268 cells at 10 uM relative to control; type: functional; conditions: read-out: GI
# BT-549 = assay: Growth inhibition of human BT-549 cells at 10 uM relative to control; type: functional; conditions: read-out: GI
# NCI-H460 = assay: Growth inhibition of human NCI-H460 cells at 10 uM relative to control; type: functional; conditions: read-out: GI
# NCI-H522 = assay: Growth inhibition of human NCI-H522 cells at 10 uM relative to control; type: functional; conditions: read-out: GI
# SK-MEL-28 = assay: Growth inhibition of human SK-MEL-28 cells at 10 uM relative to control; type: functional; conditions: read-out: GI
# UO-31 = assay: Growth inhibition of human UO-31 cells at 10 uM relative to control; type: functional; conditions: read-out: GI
# HCT-15 = assay: Growth inhibition of human HCT-15 cells at 10 uM relative to control; type: functional; conditions: read-out: GI
# IGROV-1 = assay: Growth inhibition of human IGROV-1 cells at 10 uM relative to control; type: functional; conditions: read-out: GI
# COLO 205 = assay: Growth inhibition of human COLO 205 cells at 10 uM relative to control; type: functional; conditions: read-out: GI
# SF-295 = assay: Growth inhibition of human SF-295 cells at 10 uM relative to control; type: functional; conditions: read-out: GI
# SF-539 = assay: Growth inhibition of human SF-539 cells at 10 uM relative to control; type: functional; conditions: read-out: GI
# M14 = assay: Growth inhibition of human M14 cells at 10 uM relative to control; type: functional; conditions: read-out: GI
# K562 = assay: Growth inhibition of human K562 cells at 10 uM relative to control; type: functional; conditions: read-out: GI
# U-251 = assay: Growth inhibition of human U-251 cells at 10 uM relative to control; type: functional; conditions: read-out: GI
# MDA-MB-435 = assay: Growth inhibition of human MDA-MB-435 cells at 10 uM relative to control; type: functional; conditions: read-out: GI
# 786-0 = assay: Growth inhibition of human 786-0 cells at 10 uM relative to control; type: functional; conditions: read-out: GI
# HOP-62 = assay: Growth inhibition of human HOP-62 cells at 10 uM relative to control; type: functional; conditions: read-out: GI
# A549 = assay: Growth inhibition of human A549 cells at 10 uM relative to control; type: functional; conditions: read-out: GI
# SK-MEL-5 = assay: Growth inhibition of human SK-MEL-5 cells at 10 uM relative to control; type: functional; conditions: read-out: GI
# OVCAR-8 = assay: Growth inhibition of human OVCAR-8 cells at 10 uM relative to control; type: functional; conditions: read-out: GI
# NCI-H23 = assay: Growth inhibition of human NCI-H23 cells at 10 uM relative to control; type: functional; conditions: read-out: GI
# SK-OV-3 = assay: Growth inhibition of human SK-OV-3 cells at 10 uM relative to control; type: functional; conditions: read-out: GI
# T47D = assay: Growth inhibition of human T47D cells at 10 uM relative to control; type: functional; conditions: read-out: GI
smiles,measurement,setting,value
CCOC(=O)C1=CSC2=NC(/C=C/c3ccc(Cl)cc3)=CC(c3ccc(Cl)cc3)N12 (stereo not drawn),inhibition of growth at 10 µM,MOLT-4,16.7%
same,inhibition of growth at 10 µM,MDA-MB-231,< 10%
same,inhibition of growth at 10 µM,HL-60(TB),< 10%
same,inhibition of growth at 10 µM,RPMI-8226,< 10%
same,inhibition of growth at 10 µM,SNB-75,< 10%
same,IC50,DNA,79.28 µg/mL
same,inhibition of growth at 10 µM,UACC-62,< 10%
same,inhibition of growth at 10 µM,SK-MEL-2,< 10%
same,inhibition of growth at 10 µM,Malme-3M,< 10%
same,inhibition of growth at 10 µM,SN12C,< 10%
same,inhibition of growth at 10 µM,LOX IMVI,< 10%
same,inhibition of growth at 10 µM,SW-620,< 10%
same,inhibition of growth at 10 µM,HT-29,< 10%
same,inhibition of growth at 10 µM,RXF 393,< 10%
same,inhibition of growth at 10 µM,PC-3,< 10%
same,inhibition of growth at 10 µM,SNB-19,< 10%
same,inhibition of growth at 10 µM,CAKI-1,< 10%
same,inhibition of growth at 10 µM,DU-145,< 10%
same,inhibition of growth at 10 µM,ACHN,< 10%
same,inhibition of growth at 10 µM,SR,< 10%
same,inhibition of growth at 10 µM,KM12,< 10%
same,inhibition of growth at 10 µM,OVCAR-5,< 10%
same,inhibition of growth at 10 µM,NCI/ADR-RES,< 10%
same,inhibition of growth at 10 µM,CCRF-CEM,< 10%
same,inhibition of growth at 10 µM,UACC-257,< 10%
same,inhibition of growth at 10 µM,MDA-MB-468,< 10%
same,inhibition of growth at 10 µM,Hs-578T,< 10%
same,inhibition of growth at 10 µM,OVCAR-4,< 10%
same,inhibition of growth at 10 µM,NCI-H322M,< 10%
same,inhibition of growth at 10 µM,NCI-H226,< 10%
same,inhibition of growth at 10 µM,HCT-116,< 10%
same,inhibition of growth at 10 µM,MCF7,< 10%
same,inhibition of growth at 10 µM,A498,11.8%
same,inhibition of growth at 10 µM,HCC 2998,< 10%
same,inhibition of growth at 10 µM,TK-10,< 10%
same,inhibition of growth at 10 µM,SF-268,< 10%
same,inhibition of growth at 10 µM,BT-549,< 10%
same,inhibition of growth at 10 µM,NCI-H460,< 10%
same,inhibition of growth at 10 µM,NCI-H522,< 10%
same,inhibition of growth at 10 µM,SK-MEL-28,< 10%
same,inhibition of growth at 10 µM,UO-31,< 10%
same,inhibition of growth at 10 µM,HCT-15,< 10%
same,inhibition of growth at 10 µM,IGROV-1,< 10%
same,inhibition of growth at 10 µM,COLO 205,< 10%
same,inhibition of growth at 10 µM,SF-295,< 10%
same,inhibition of growth at 10 µM,SF-539,< 10%
same,inhibition of growth at 10 µM,M14,< 10%
same,inhibition of growth at 10 µM,K562,12.4%
same,inhibition of growth at 10 µM,U-251,14.6%
same,inhibition of growth at 10 µM,MDA-MB-435,< 10%
same,inhibition of growth at 10 µM,786-0,< 10%
same,inhibition of growth at 10 µM,HOP-62,< 10%
same,inhibition of growth at 10 µM,A549,< 10%
same,inhibition of growth at 10 µM,SK-MEL-5,< 10%
same,inhibition of growth at 10 µM,OVCAR-8,< 10%
same,inhibition of growth at 10 µM,NCI-H23,< 10%
same,inhibition of growth at 10 µM,SK-OV-3,< 10%
same,inhibition of growth at 10 µM,T47D,< 10%
